From patent US20090062273A1, “3-H-pyrazolopyridines and salts thereof, pharmaceutical compositions comprising same, methods of preparing same and uses of same” (priority 2006, published 2009)
pIC50: −log10 of the molar value.

Key:
Tie2 = Tie2 (Homo sapiens, UniProt Q02763); assay: Tie-2-Kinase HTRF-Assay without kinase preactivation; assay type: biochemical; parameters: fusion protein of GST and the intracellular domains of Tie-2; GST; made in house; host or cells: insect cells (Hi-5); conditions: GST-Tie-2 intracellular domains, 10 μM ATP
Description: Tie2-inhibitory activity of compounds of the present invention was quantified employing two Tie2 HTRF assay as described in the following paragraphs.
A recombinant fusion protein of GST and the intracellular domains of Tie-2, expressed in insect cells (Hi-5) and purified by Glutathion-Sepharose affinity chromatography was used as kinase. Alternatively, commercially available GST-Tie2-fusion protein (Upstate Biotechnology, Dundee, Scotland) can be used As substrate for the kinase reaction the biotinylated peptide biotin-Ahx-EPKDDAYPLYSDFG (C-terminus in amid form) was used which can be purchased e.g. from the company Biosynthan GmbH (Berlin-Buch, Germany). Detection of phosphorylated product is achieved specifically by a trimeric detection complex consisting of the phosphorylated substrate, streptavidin-XLent (SA-XLent) which binds to biotin, and Europium Cryptate-labeled anti-phosphotyrosine antibody PT66 which binds to phosphorylated tyrosine.
Tie-2 (3.5 ng/measurement point) was incubated for 60 min at 22° C. in the presence of 10 μM adenosine-tri-phosphate (ATP) and 1 μM substrate peptide (biotin-Ahx-EPKDDAYPLYSDFG-NH2) with different concentrations of test compounds (0 μM and concentrations in the range 0.001-20 μM) in 5 μl assay buffer [50 mM Hepes/NaOH pH 7, 10 mM MgCl2, 0.5 mM MnCl2, 1.0 mM dithiothreitol, 0.01% NP40, protease inhibitor mixture (“Complete w/o EDTA” from Roche, 1 tablet per 2.5 ml), 1% (v/v) dimethylsulfoxide]. The reaction was stopped by the addition of 5 μl of an aqueous buffer (25 mM Hepes/NaOH pH 7.5, 0.28% (w/v) bovine serum albumin) containing EDTA (90 mM) and the HTRF (Homogeneous Time Resolved Fluorescence) detection reagents streptavidine-XLent (0.2 μM, from Cis Biointernational, Marcoule, France) and PT66-Eu-Chelate (0.3 ng/μl; a europium-chelate labelled anti-phospho-tyrosine antibody from Perkin Elmer).
(§1) The resulting mixture was incubated 1 h at 22° C. to allow the binding of the biotinylated phosphorylated peptide to the streptavidine-XLent and the PT66-Eu-Chelate. Subsequently the amount of phosphorylated substrate peptide was evaluated by measurement of the resonance energy transfer from the PT66-Eu-Chelate to the streptavidine-XLent. Therefore, the fluorescence emissions at 620 nm and 665 nm after excitation at 350 nm was measured in a HTRF reader, e.g. a Rubystar (BMG Labtechnologies, Offenburg, Germany) or a Viewlux (Perkin-Elmer). The ratio of the emissions at 665 nm and at […] was taken as the measure for the amount of phosphorylated substrate peptide. The data were normalised (enzyme reaction without inhibitor=0% inhibition, all other assay components but no enzyme=100% inhibition) and IC50 values were calculated by a 4 parameter fit using an inhouse software.

[1] = target: T1, human insuline receptor (Ins-R) (Homo sapiens, UniProt P06213); assay: InsR HTRF assay (selectivity vs. Tie2 assay 2); assay type: biochemical; conditions: IC50 assay 4/IC50 assay 2
T1 construct: GST-tagged recombinant kinase domain of the human insuline receptor; GST; purchased ProQinase, Freiburg, Germany; host or cells: SF-9 cells
Method: Inhibitory activity of compounds against the kinase activity of the insulin receptor was quantified employing the Ins-R HTRF assay as described in the following paragraphs.
GST-tagged recombinant kinase domain of the human insuline receptor (Ins-R, purchase from ProQinase, Freiburg, Germany) expressed in SF-9 cells was used as kinase. As substrate for the kinase reaction biotinylated poly-(Glu,Tyr) (Cis biointernational, France) was used.
Ins-R was incubated for 20 min at 22° C. in the presence of different concentrations of test compounds in 5 μl assay buffer [50 mM Hepes/NaOH pH 7, 15 mM MnCl2, 1 mM dithiothreitol, 0.1 μM sodium ortho-vanadate, 0.015% (v/v) PEG20000, 10 μM adenosine-tri-phosphate (ATP), 0.3 μg/ml substrate, 1% (v/v) dimethylsulfoxide]. The concentration of Ins-R was adjusted depending of the activity of the enzyme lot and was chosen appropriate to have the assay in the linear range, typical concentrations were in the range of 10 pg/μL. The reaction was stopped by the addition of 5 μl of a solution of HTRF detection reagents (0.1 μM streptavidine-XLent and 1 nM PT66-Eu-Chelate, an europium-chelate labelled anti-phospho-tyrosine antibody from Perkin Elmer) in an aqueous EDTA-solution (80 mM EDTA, 0.2% (w/v) bovine serum albumin in 50 mM HEPES/NaOH pH 7.0).
as §1, with “substrate” for “substrate peptide”, “ViewLux” for “Viewlux”, “substrate.” for “substrate peptide.”

T1 sequence (P06213 1023-1298 limits assumed): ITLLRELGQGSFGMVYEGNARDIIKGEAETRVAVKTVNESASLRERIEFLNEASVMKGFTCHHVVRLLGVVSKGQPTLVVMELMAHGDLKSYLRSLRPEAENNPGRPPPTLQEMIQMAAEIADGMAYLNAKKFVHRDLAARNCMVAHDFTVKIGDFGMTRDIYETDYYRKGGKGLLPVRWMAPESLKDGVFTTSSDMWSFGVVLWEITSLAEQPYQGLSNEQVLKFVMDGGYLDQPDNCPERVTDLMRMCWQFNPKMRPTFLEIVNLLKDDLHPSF
Tie2, sequence (Q02763 770-1124 limits assumed, species assumed): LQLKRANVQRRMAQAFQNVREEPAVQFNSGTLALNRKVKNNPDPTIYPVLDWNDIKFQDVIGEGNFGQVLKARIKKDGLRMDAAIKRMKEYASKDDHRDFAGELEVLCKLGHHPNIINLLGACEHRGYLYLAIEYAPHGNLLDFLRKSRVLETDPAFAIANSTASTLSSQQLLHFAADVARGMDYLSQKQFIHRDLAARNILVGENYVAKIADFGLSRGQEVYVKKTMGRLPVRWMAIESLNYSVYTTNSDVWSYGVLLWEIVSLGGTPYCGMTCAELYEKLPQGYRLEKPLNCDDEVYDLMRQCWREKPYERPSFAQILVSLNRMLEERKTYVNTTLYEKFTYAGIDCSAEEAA

| Compound | pIC50 (Tie2) | Selectivity vs. InsR [1] [fold] |
| --- | --- | --- |
| O=C(Nc1ccc(-c2cncc3c2cnn3CCO)cc1F)Nc1cc(C(F)(F)F)ccc1F [Example 8.1, 1-{2-Fluoro-4-[1-(2-hydroxy-ethyl)-1H-pyrazolo[3,4-c]pyridin-4-yl]-phenyl}-3-(2-fluoro-5-trifluoromethyl-phenyl)-urea] | > 6.30 | >50 |
| CCc1cccc(NC(=O)Nc2ccc(-c3cncc4c3cnn4C)cc2)c1 [Example 1.5, 1-(3-Ethyl-phenyl)-3-[4-(1-methyl-1H-pyrazolo[3,4-c]pyridin-4-yl)-phenyl]-urea] | > 6.30 | >50 |
| Cn1ncc2c(-c3ccc(NC(=O)Nc4cc(C(C)(C)C)nn4-c4cncc(F)c4)cc3)cncc21 [Example 15.12, 1-[5-tert-Butyl-2-(5-fluoro-pyridin-3-yl)-2H-pyrazol-3-yl]-3-[4-(1-methyl-1H-pyrazolo[3,4-c]pyridin-4-yl)-phenyl]-urea] | > 6.30 | >50 |
| Cn1ncc2c(-c3ccc(NC(=O)Nc4cc(C(C)(C)C)nn4-c4ccncc4)cc3)cncc21 [Example 15.10, 1-(5-tert-Butyl-2-pyridin-4-yl-2H-pyrazol-3-yl)-3-[4-(1-methyl-1H-pyrazolo[3,4-c]pyridin-4-yl)-phenyl]-urea] | > 6.30 | >50 |
| CN(C(=O)Nc1cccc(C(F)(F)F)c1)c1ccc(-c2cncc3c2cnn3C)cc1 [Example 6.1, 1-Methyl-1-[4-(1-methyl-1H-pyrazolo[3,4-c]pyridin-4-yl)-phenyl]-3-(3-trifluoromethyl-phenyl)-urea] | 6.00 to 6.30 | >25 |
| CCn1ncc2c(-c3ccc(NC(=O)Nc4cccc(C(F)(F)F)c4)c(F)c3)cncc21 [Example 11.1, 1-[4-(1-Ethyl-1H-pyrazolo[3,4-c]pyridin-4-yl)-2-fluoro-phenyl]-3-(3-trifluoromethyl-phenyl)-urea] | > 6.30 | >50 |
| CN(C)CCN(C)c1ccc(C(F)(F)F)cc1NC(=O)Nc1ccc(-c2cncc3c2cnn3C)cc1 [Example 13.13, 1-{2-[(2-Dimethylamino-ethyl)-methyl-amino]-5-trifluoromethyl-phenyl}-3-[4-(1-methyl-1H-pyrazolo[3,4-c]pyridin-4-yl)-phenyl]-urea] | > 6.30 | >50 |
| Cn1ncc2c(-c3ccc(NC(=O)Nc4cc(C(C)(C)C)nn4-c4ccc(F)cc4)cc3)cncc21 [Example 15.7, 1-[5-tert-Butyl-2-(4-fluoro-phenyl)-2H-pyrazol-3-yl]-3-[4-(1-methyl-1H-pyrazolo[3,4-c]pyridin-4-yl)-phenyl]-urea] | > 6.30 | >50 |
| CN(C)c1ccc(C(F)(F)F)cc1NC(=O)Nc1ccc(-c2cncc3c2cnn3C)cc1 [Example 13.11, 1-(2-Dimethylamino-5-trifluoromethyl-phenyl)-3-[4-(1-methyl-1H-pyrazolo[3,4-c]pyridin-4-yl)-phenyl]-urea] | > 6.30 | >50 |
| O=C(Nc1ccc(-c2cncc3c2cnn3CCO)cc1)Nc1cc(C(F)(F)F)ccc1F [Example 8.2, 1-(2-Fluoro-5-trifluoromethyl-phenyl)-3-{4-[1-(2-hydroxy-ethyl)-1H-pyrazolo[3,4-c]pyridin-4-yl]-phenyl}-urea] | > 6.30 | >50 |
| CCn1ncc2c(-c3ccc(NC(=O)Nc4cc(C(F)(F)F)ccc4F)cc3)cncc21 [Example 10.5, 1-[4-(1-Ethyl-1H-pyrazolo[3,4-c]pyridin-4-yl)-phenyl]3-(2-fluoro-5-trifluoromethyl-phenyl)-urea] | > 6.30 | >50 |
| COCCn1ncc2c(-c3ccc(NC(=O)Nc4cccc(C(F)(F)F)c4)cc3)cncc21 [Example 12.1, 1-{4-[1-(2-Methoxy-ethyl)-1H-pyrazolo[3,4-c]pyridin-4-yl]-phenyl}-3-(3-trifluoromethyl-phenyl)-urea] | > 6.30 | >50 |
| Cn1ncc2c(-c3ccc(NC(=O)Nc4cc(C(C)(C)C)nn4-c4ccccc4)cc3)cncc21 [Example 13.4, 1-(5-tert-Butyl-2-phenyl-2H-pyrazol-3-yl)-13-[4-(1-methyl-1H-pyrazolo[3,4-c]pyridin-4-yl)-phenyl]-urea] | > 6.30 | >50 |

The next lines start with the values.

| pIC50 (Tie2) | Selectivity vs. InsR [1] [fold] | Compound |
| --- | --- | --- |
| > 6.30 | >50 | Cn1ncc2c(-c3ccc(NC(=O)Nc4cccc(C(F)(F)F)c4)cc3)cncc21 [Example 1.4, 1-[4-(1-Methyl-1H-pyrazolo[3,4-c]pyridin-4-yl)-phenyl]-3-(3-trifluoromethyl-phenyl)-urea] |
| > 6.30 | >50 | O=C(Nc1cccc(C(F)(F)F)c1)Nc1ccc(-c2cncc3c2cnn3CCO)cc1F [Example 8.5, 1-{2-Fluoro-4-[1-(2-hydroxy-ethyl)-1H-pyrazolo[3,4-c]pyridin-4-yl]-phenyl}-3-(3-trifluoromethyl-phenyl)-urea] |
| > 6.30 | >50 | CCn1ncc2c(-c3ccc(NC(=O)Nc4cc(C(F)(F)F)ccc4F)c(F)c3)cncc21 [Example 11.2, 1-[4-(1-Ethyl-1H-pyrazolo[3,4-c]pyridin-4-yl)-2-fluoro-phenyl]-3-(2-fluoro-5-trifluoromethyl-phenyl)-urea] |
| > 6.30 | >50 | CN1CCN(Cc2ccc(NC(=O)Nc3ccc(-c4cncc5c4cnn5C)cc3)cc2C(F)(F)F)CC1 [Example 6.4, 1-[4-(4-Methyl-piperazin-1-ylmethyl)-3-trifluoromethyl-phenyl]-3-[4-(1-methyl-1H-pyrazolo[3,4-c]pyridin-4-yl)-phenyl]-urea] |
| > 6.30 | >50 | Cn1ncc2c(-c3ccc(NC(=O)Nc4cc(C(C)(C)C)nn4-c4cncc(F)c4)c(F)c3)cncc21 [Example 15.13, 1-[5-tert-Butyl-2-(5-fluoro-pyridin-3-yl)-2H-pyrazol-3-yl]-3-[2-fluoro-4-(1-methyl-1H-pyrazolo[3,4-c]pyridin-4-yl)-phenyl]-urea] |
| > 6.30 | >50 | Cn1nc(C(C)(C)C)cc1NC(=O)Nc1ccc(-c2cncc3c2cnn3C)cc1 [Example 14.3, 1-(5-tert-Butyl-2-methyl-2H-pyrazol-3-yl)-3-[4-(1-methyl-1H-pyrazolo[3,4-c]pyridin-4-yl)-phenyl]-urea] |
